Test results as given in patent US12415786B2, “Substituted 2-heteroarylaminobenzenes and the salts thereof and their use as herbicidal agents” (Bayer Aktiengesellschaft, priority 2019, dated 2025).

How the values were obtained:
Assay type in all cases: in vivo
Setaria viridis = assay: Herbicidal pre-emergence action (greenhouse pots), SETVI; details: 1280 g/ha, visual scoring after about 3 weeks vs untreated controls
Excerpt: (§1) In the examples and tables below, the following abbreviations are used: • Undesired Plants/Weeds: • ABUTH: Abutilon theophrasti • AGSTE: Agrostis tenuis • AMARE Amaranthus retroflexus • ECHCG: Echinochloa crus-galli • LOLRI: Lolium rigidum • MATIN: Matricaria inodora • POAAN: Poa annua • SETVI: Setaria viridis • STEME: Stellaria media A. Herbicidal Early Post-Emergence Action Seeds of mono- and dicotyledonous weed plants were placed in plastic pots in sandy loam soil (doubly sown with one species each of mono- or dicotyledonous weed plants per pot) and covered with soil. The compounds of the invention, formulated in the form of wettable powders (WP) or as emulsion concentrates (EC), were then applied onto the surface of the covering soil as aqueous suspension or emulsion with addition of 0.5% additive at a water application rate of 600 liters per hectare (converted). After the treatment, the pots were placed in a greenhouse and kept under good growth conditions for the test plants. After about 3 weeks, the effect of the preparations was scored visually in comparison with untreated controls as percentages. For example, 100% activity=the plants have died, 0% activity=like untreated control plants. Tables C1-C8 below show the effects of selected compounds of the general formula (I) according to Table 1 above on various harmful plants and an application rate corresponding to 1280 g/ha, which were obtained by the experimental procedure mentioned above.

Agrostis tenuis = assay: Herbicidal early post-emergence action (96-well microtiter plates), AGSTE; details: 1900 g/ha, scored 9 to 12 days after treatment, 100% = plants have died, 0% = like untreated control plants
Excerpt: (§2) In the examples and tables below, the following abbreviations are used: • Undesired Plants/Weeds: • ABUTH: Abutilon theophrasti • AGSTE: Agrostis tenuis • AMARE Amaranthus retroflexus • ECHCG: Echinochloa crus-galli • LOLRI: Lolium rigidum • MATIN: Matricaria inodora • POAAN: Poa annua • SETVI: Setaria viridis • STEME: Stellaria media A. Herbicidal Early Post-Emergence Action Seeds of monocotyledonous and dicotyledonous weed plants were placed in 96-well microtiter plates in quartz sand and grown in a climatized chamber under controlled growth conditions. 5 to 7 days after sowing, the test plants were treated at the cotyledon stage. The compounds according to the invention, formulated in the form of emulsion concentrates (EC), were applied with a water application rate of the equivalent of 2200 liters per hectare. After the test plants had been left to stand in the climatized chamber for 9 to 12 days under optimum growth conditions, the effect of the preparations was scored visually in comparison to untreated controls. Here, for example, 100% activity=the plants have died, 0% activity=like untreated control plants. Tables A1 to A2 below show the effects of selected compounds of the general formula (I) according to Table 1 above on various harmful plants and an application rate corresponding to 1900 g/ha, which were obtained by the experimental procedure mentioned above.

Stellaria media [1] = assay: Herbicidal post-emergence action (greenhouse pots), STEME; details: 1280 g/ha, visual rating about 3 weeks after treatment vs untreated controls
Excerpt: (§3) In the examples and tables below, the following abbreviations are used: • Undesired Plants/Weeds: • ABUTH: Abutilon theophrasti • AGSTE: Agrostis tenuis • AMARE Amaranthus retroflexus • ECHCG: Echinochloa crus-galli • LOLRI: Lolium rigidum • MATIN: Matricaria inodora • POAAN: Poa annua • SETVI: Setaria viridis • STEME: Stellaria media A. Herbicidal Early Post-Emergence Action Seeds of mono- and dicotyledonous weed plants were placed in plastic pots in sandy loam soil (doubly sown with in each case one species of mono- or dicotyledonous weed plants per pot), covered with soil and cultivated in a greenhouse under controlled growth conditions. 2 to 3 weeks after sowing, the test plants were treated at the one-leaf stage. The compounds of the invention, formulated in the form of wettable powders (WP) or as emulsion concentrates (EC), were applied onto the green parts of the plants as aqueous suspension or emulsion with addition of 0.5% additive at a water application rate of 600 liters per hectare (converted). After the test plants had been kept in the greenhouse under optimum growth conditions for about 3 weeks, the activity of the preparations was rated visually in comparison to untreated controls. For example, 100% activity=the plants have died, 0% activity=like untreated control plants. Tables B1-B8 below show the effects of selected compounds of the general formula (I) according to Table 1 above on various harmful plants and an application rate corresponding to 1280 g/ha, which were obtained by the experimental procedure mentioned above.

Abutilon theophrasti = assay: Herbicidal post-emergence action (greenhouse pots), ABUTH; details: 1280 g/ha, visual rating about 3 weeks after treatment vs untreated controls
Excerpt: as §3

Amaranthus retroflexus [2] = assay: Herbicidal post-emergence action (greenhouse pots), AMARE; details: 1280 g/ha, visual rating about 3 weeks after treatment vs untreated controls
Excerpt: as §3

Poa annua [3] = assay: Herbicidal early post-emergence action (96-well microtiter plates), POAAN; details: 1900 g/ha, scored 9 to 12 days after treatment, 100% = plants have died, 0% = like untreated control plants
Excerpt: as §2

Amaranthus retroflexus [4] = assay: Herbicidal pre-emergence action (greenhouse pots), AMARE; details: 1280 g/ha, visual scoring after about 3 weeks vs untreated controls
Excerpt: as §1

Stellaria media [5] = assay: Herbicidal pre-emergence action (greenhouse pots), STEME; details: 1280 g/ha, visual scoring after about 3 weeks vs untreated controls
Excerpt: as §1

Matricaria inodora = assay: Herbicidal pre-emergence action (greenhouse pots), MATIN; details: 1280 g/ha, visual scoring after about 3 weeks vs untreated controls
Excerpt: as §1

Poa annua [6] = assay: Herbicidal pre-emergence action (greenhouse pots), POAAN; details: 1280 g/ha, visual scoring after about 3 weeks vs untreated controls
Excerpt: as §1

Echinochloa crus-galli = assay: Herbicidal pre-emergence action (greenhouse pots), ECHCG; details: 1280 g/ha, visual scoring after about 3 weeks vs untreated controls
Excerpt: as §1

| SMILES | herbicidal activity SETVI (Setaria viridis) [%] | AGSTE (herbicidal activity, scored visually in comparison to untreated controls) (Agrostis tenuis) [%] | herbicidal activity STEME (Stellaria media [1]) [%] | herbicidal activity ABUTH (Abutilon theophrasti) [%] | herbicidal activity AMARE (Amaranthus retroflexus [2]) [%] | POAAN (herbicidal activity, scored visually in comparison to untreated controls) (Poa annua [3]) [%] | herbicidal activity AMARE (Amaranthus retroflexus [4]) [%] | herbicidal activity STEME (Stellaria media [5]) [%] | herbicidal activity MATIN (Matricaria inodora) [%] | herbicidal activity POAAN (Poa annua [6]) [%] | herbicidal activity ECHCG (Echinochloa crus-galli) [%] |
| --- | --- | --- | --- | --- | --- | --- | --- | --- | --- | --- | --- |
| N#Cc1cccc(Nc2ncc(OC(F)F)cn2)c1Oc1ccc(F)cc1 [Example 1-314] | 100 | 100 | 100 | 90 | 100 | 80 | – | – | – | – | – |
| N#Cc1cccc(Nc2ccccn2)c1Oc1ccc(F)cc1 [Example 1-88] | 90 | 100 | 100 | – | – | 80 | 100 | – | – | – | – |
| N#Cc1cccc(Nc2ncccn2)c1Oc1ccc(F)cc1Cl [Example 1-255] | – | 80 | 100 | – | 100 | 80 | 100 | 100 | – | – | – |
| N#Cc1cccc(Nc2ncccn2)c1Oc1ccc(F)cc1F [Example 1-251] | 90 | 80 | – | – | 100 | 80 | 100 | 100 | 100 | – | – |
| COc1cnc(Nc2cccc(C#N)c2Oc2ccc(F)cc2)nc1 [Example 1-312] | 90 | 100 | 100 | 100 | 100 | 100 | 100 | 100 | 100 | 100 | – |
| N#Cc1ccc(Oc2ccccc2Nc2ncc(Cl)cn2)cc1 [Example 1-339] | – | 100 | 100 | – | 100 | 100 | – | – | – | – | – |
| N#Cc1cccc(Nc2ncc(Cl)cn2)c1Oc1cccc(F)c1 [Example 1-285] | 100 | – | – | – | 100 | – | 100 | 100 | – | 100 | 90 |
| N#Cc1cccc(Nc2ccc(F)cn2)c1Oc1ccc(F)cc1 [Example 1-106] | – | 100 | 90 | – | 100 | 100 | 100 | – | – | 100 | – |
| Clc1cnc(Nc2ccccc2Oc2cccnc2)nc1 [Example 3-49] | – | 80 | – | 90 | 100 | – | – | – | – | – | – |
| N#Cc1cnc(Nc2cccc(C#N)c2Oc2ccc(F)cc2)nc1 [Example 1-304] | 100 | 100 | – | – | 100 | 100 | 100 | 100 | 100 | 100 | – |
| COc1cccc(Oc2c(C#N)cccc2Nc2ncc(Cl)cn2)c1 [Example 1-300] | – | 80 | – | – | 100 | – | 90 | 100 | 90 | – | – |
| N#Cc1cccc(Nc2ncccn2)c1Oc1ccc(Cl)cc1F [Example 1-256] | 90 | 80 | – | – | 100 | 80 | 100 | 100 | 90 | 100 | – |
| N#Cc1cccc(Nc2ncccn2)c1Oc1ccc(Cl)cc1 [Example 1-250] | 90 | 80 | 90 | – | 100 | 80 | 100 | 100 | – | 100 | – |
| N#Cc1cccc(Nc2ncc(F)cn2)c1Oc1ccc(F)cc1Cl [Example 1-274] | – | 80 | 90 | – | 100 | 100 | 90 | 90 | – | 90 | – |
| Clc1cnc(Nc2cccc(Cl)c2Oc2ccccc2)nc1 [Example 1-340] | 100 | 80 | 100 | 90 | 100 | 100 | 100 | 90 | – | 100 | – |
| N#Cc1cccc(Nc2ccc(F)cn2)c1Oc1ccc(F)c(F)c1 [Example 1-111] | 90 | 100 | 90 | 90 | 100 | 100 | 100 | 100 | 90 | – | – |
| N#Cc1cccc(Nc2ncc(Cl)cn2)c1Oc1ccc(F)cc1Cl [Example 1-293] | 100 | 80 | – | 90 | 100 | 80 | 100 | 90 | – | – | – |
| N#Cc1cnc(Nc2cccc(C#N)c2Oc2ccc(F)c(F)c2)nc1 [Example 1-305] | 90 | 100 | 100 | – | 100 | 100 | 100 | 100 | 100 | 100 | – |
